Converted amounts (≈) assume the structure as drawn.
How the values were obtained:
Test in all cases: ≥ marks a high value that may be exact or a test limit, other limits are often not marked, values filed in µg/mL are converted to µM
[1] = test system: Staphylococcus aureus
[2] = test system: Escherichia coli W160-37
[3] = test system: Candida albicans ATCC 37092
[4] = test system: Escherichia coli ATCC 25922
[5] = test system: Staphylococcus aureus ATCC 29213
[6] = test system: Psychrobacter faecalis X29
[7] = test system: Enterococcus faecalis 981
[8] = test system: Candida glabrata 090902
[9] = test system: Nocardia asteroides
[10] = test system: Staphylococcus aureus ATCC 25923
[11] = test system: Staphylococcus aureus 1303
[12] = test system: Escherichia coli 1342
[13] = test system: Candida glabrata 0902
[14] = test system: Staphylococcus aureus 1349
[15] = test system: Pseudomonas aeruginosa 1413
[16] = test system: Cutibacterium acnes ATCC 11827
[17] = test system: Staphylococcus epidermidis
[18] = test system: Pseudomonas aeruginosa 1412
[19] = test system: Pseudomonas aeruginosa ATCC 27853
[20] = test system: Escherichia coli 1334
[21] = test system: Staphylococcus aureus ATCC 2592
[22] = test system: Pseudomonas aeruginosa 1411
[23] = test system: Candida albicans ATCC 2002
[24] = test system: Bacillus megaterium Bm11
[25] = test system: Acinetobacter calcoaceticus Ac11
[26] = test system: Escherichia coli D21
[27] = test system: Escherichia coli ATCC BAA-3051
[28] = test system: Salmonella typhimurium SL1344
[29] = test system: Bacillus subtilis ATCC 6051
[30] = test system: Enterococcus faecalis ATCC 29212
[31] = test system: Staphylococcus aureus ATCC 33591
[32] = test system: Micrococcus luteus ATCC 9341
[33] = test system: Salmonella enterica subsp. enterica serovar Typhimurium LT2

CC[C@H](C)[C@H](NC(=O)[C@H](Cc1c[nH]c2ccccc12)NC(=O)[C@H](CCCCN)NC(=O)[C@H](CO)NC(=O)[C@H](CC(C)C)NC(=O)[C@H](Cc1ccccc1)NC(=O)[C@H](CCCCN)NC(=O)[C@H](CC(C)C)NC(=O)[C@H](CC(C)C)NC(=O)[C@H](CCCCN)NC(=O)[C@@H]1CCCN1)C(=O)NCC(=O)O [PKLLKFLSKWIG]
MIC [1]: 14 µM (≈ 20 µg/mL)
MIC [2]: 24 µM (≈ 34.3 µg/mL)

CC[C@H](C)[C@H](NC(=O)[C@H](CCCN=C(N)N)NC(=O)[C@@H](N)CCCN=C(N)N)C(=O)N[C@@H](CCCN=C(N)N)C(=O)N1CCC[C@H]1C(=O)N[C@@H](CCCN=C(N)N)C(=O)N1CCC[C@H]1C(=O)O [RRIRPRP]
MIC [3]: ≥ 500 µM
MIC [4]: > 500 µM
MIC [5]: > 500 µM

CC[C@H](C)[C@H](NC(=O)[C@H](CC(C)C)NC(=O)CNC(=O)[C@@H](NC(=O)[C@@H](NC(=O)[C@@H](N)Cc1ccccc1)[C@@H](C)CC)[C@@H](C)O)C(=O)N[C@@H](CO)C(=O)NCC(=O)N[C@@H](CC(C)C)C(=O)N[C@@H](CCSC)C(=O)N[C@@H](CCCCN)C(=O)N[C@@H](C)C(=O)N[C@@H](CC(C)C)C(N)=O [FITGLISGLMKAL]
MIC [6]: ≥ 200 µM
MIC [7]: 25 µM (≈ 34.1 µg/mL)
MIC [8]: ≥ 100 µM
MIC [9]: 12.5 µM (≈ 17 µg/mL)
MIC [10]: 12.5 µM (≈ 17 µg/mL)

CC[C@H](C)[C@H](NC(=O)[C@H](Cc1cnc[nH]1)NC(=O)[C@H](CO)NC(=O)CNC(=O)[C@H](CO)NC(=O)CNC(=O)[C@@H](NC(=O)[C@H](CO)NC(=O)[C@H](CCCN=C(N)N)NC(=O)[C@H](CC(C)C)NC(=O)[C@H](CCCCN)NC(=O)[C@H](CCC(N)=O)NC(=O)[C@H](CCCCN)NC(=O)[C@H](CC(C)C)NC(=O)[C@H](CCC(N)=O)NC(=O)[C@@H]1CSSC[C@H](NC(=O)[C@H](CCCCN)NC(=O)CN)C(=O)N[C@@H](CC(N)=O)C(=O)N[C@@H](C(C)C)C(=O)N[C@@H](CC(C)C)C(=O)N1)[C@@H](C)CC)C(=O)NCC(=O)N[C@@H](CO)C(=O)N[C@H](C(=O)N[C@H](C(=O)N[C@@H](CC(C)C)C(=O)N1CCC[C@H]1C(=O)N[C@@H](CCCN=C(N)N)C(=O)NCC(=O)O)C(C)C)C(C)C [GKCNVLCQLKQKLRSIGSGSHIGSVVLPRG]
MIC [11]: 4.54 µM (≈ 14.2 µg/mL)
MIC [12]: 9.08 µM (≈ 28.5 µg/mL)
MIC [13]: 4.54 µM (≈ 14.2 µg/mL)
MIC [14]: 9.08 µM (≈ 28.5 µg/mL)
MIC [15]: 4.54 µM (≈ 14.2 µg/mL)
MIC [16]: 18.2 µM (≈ 57 µg/mL)
MIC [1]: 2.27 µM (≈ 7.11 µg/mL)
MIC [17]: 4.54 µM (≈ 14.2 µg/mL)
MIC [18]: 9.08 µM (≈ 28.5 µg/mL)
MIC [19]: 4.54 µM (≈ 14.2 µg/mL)
MIC [20]: 4.54 µM (≈ 14.2 µg/mL)
MIC [21]: 2.27 µM (≈ 7.11 µg/mL)
MIC [22]: 4.54 µM (≈ 14.2 µg/mL)
MIC [23]: 1.13 µM (≈ 3.54 µg/mL)
MIC [4]: 2.27 µM (≈ 7.11 µg/mL)

CC[C@H](C)[C@H](N=C(O)[C@H](CC(C)C)N=C(O)[C@H](C)N=C(O)[C@H](Cc1ccccc1)N=C(O)[C@H](Cc1ccccc1)N=C(O)CN)C(=O)N1CCC[C@H]1C(O)=N[C@@H](CCCCN)C(O)=N[C@H](C(O)=N[C@H](C(O)=N[C@@H](CO)C(O)=N[C@@H](CO)C(=O)N1CCC[C@H]1C(O)=N[C@@H](CC(C)C)C(O)=N[C@@H](Cc1ccccc1)C(O)=N[C@@H](CCCCN)C(O)=N[C@H](C(O)=N[C@@H](CC(C)C)C(O)=N[C@@H](CC(C)C)C(O)=N[C@@H](CO)C(O)=N[C@@H](C)C(O)=N[C@H](C(O)=NCCN)C(C)C)[C@@H](C)O)[C@@H](C)CC)[C@@H](C)CC [GFFALIPKIISSPLFKTLLSAV]
MIC [24]: 6.2 µM (≈ 14.9 µg/mL)
MIC [25]: ≥ 100 µM
MIC [26]: ≥ 100 µM
MIC [27]: 13.2 µM (≈ 31.9 µg/mL)
MIC [28]: ≥ 52.9 µM
MIC [19]: > 100 µM
MIC [29]: 20 µM (≈ 48.1 µg/mL)
MIC [30]: 3.3 µM (≈ 7.94 µg/mL)
MIC [31]: 3.3 µM (≈ 7.94 µg/mL)
MIC [4]: 13.2 µM (≈ 31.9 µg/mL)
MIC [32]: ≥ 100 µM
MIC [33]: ≥ 100 µM
MIC [5]: 3.3 µM (≈ 7.94 µg/mL)

From DBAASP
